Consider one compound from paper PMC3416681, “The orthosteric agonist 2-chloro-5-hydroxyphenylglycine activates mGluR5 and mGluR1 with similar efficacy and potency” (2012).

Experiment [1] concerns the target T1, mGluR5b (Rattus norvegicus, UniProt P31424).
T1 construct: gene Grm5; splice variant mGluR5b
Nature of the experiment: whole-cell patch clamp, calcium current inhibition in SCG neurons expressing the receptor. It counts as cell-based.

Experiment [2] deals with T2, mGluR1a (Rattus norvegicus, UniProt P23385).
T2 construct: gene Grm1; splice variant mGluR1a (untagged and N-terminally myc-tagged, data combined)
Described as above. It counts as cell-based.

T1 sequence (P31424 21-1203): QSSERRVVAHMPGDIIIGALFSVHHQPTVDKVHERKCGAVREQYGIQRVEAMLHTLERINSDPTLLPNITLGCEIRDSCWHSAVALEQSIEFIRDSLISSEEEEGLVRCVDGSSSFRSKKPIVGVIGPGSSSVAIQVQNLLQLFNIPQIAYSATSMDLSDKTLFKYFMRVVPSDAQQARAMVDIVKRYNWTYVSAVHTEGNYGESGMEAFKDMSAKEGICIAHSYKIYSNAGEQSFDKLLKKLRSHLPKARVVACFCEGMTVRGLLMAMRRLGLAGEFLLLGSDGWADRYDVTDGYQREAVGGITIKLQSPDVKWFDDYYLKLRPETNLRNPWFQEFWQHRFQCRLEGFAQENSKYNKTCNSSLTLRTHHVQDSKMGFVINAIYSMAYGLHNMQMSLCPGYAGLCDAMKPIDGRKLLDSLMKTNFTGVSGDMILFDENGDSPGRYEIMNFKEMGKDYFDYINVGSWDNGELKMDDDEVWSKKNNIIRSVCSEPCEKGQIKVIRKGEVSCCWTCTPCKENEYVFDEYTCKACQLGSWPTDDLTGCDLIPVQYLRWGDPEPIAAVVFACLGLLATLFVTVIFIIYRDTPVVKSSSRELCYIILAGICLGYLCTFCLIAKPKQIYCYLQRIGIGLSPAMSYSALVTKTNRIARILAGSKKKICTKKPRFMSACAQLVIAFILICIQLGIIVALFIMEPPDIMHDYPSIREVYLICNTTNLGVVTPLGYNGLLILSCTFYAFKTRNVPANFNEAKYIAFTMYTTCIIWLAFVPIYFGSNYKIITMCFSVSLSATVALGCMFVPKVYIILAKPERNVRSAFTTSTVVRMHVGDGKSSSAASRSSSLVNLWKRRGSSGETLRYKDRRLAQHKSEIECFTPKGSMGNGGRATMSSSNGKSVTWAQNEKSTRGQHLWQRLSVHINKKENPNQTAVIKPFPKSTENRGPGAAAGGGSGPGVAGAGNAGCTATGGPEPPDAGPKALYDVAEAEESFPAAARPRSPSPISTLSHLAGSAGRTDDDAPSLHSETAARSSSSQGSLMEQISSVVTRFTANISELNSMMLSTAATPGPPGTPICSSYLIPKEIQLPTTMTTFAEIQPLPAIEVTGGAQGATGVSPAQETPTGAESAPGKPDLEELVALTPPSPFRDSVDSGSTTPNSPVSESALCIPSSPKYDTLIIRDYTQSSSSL
T2 sequence (P23385 19-1199): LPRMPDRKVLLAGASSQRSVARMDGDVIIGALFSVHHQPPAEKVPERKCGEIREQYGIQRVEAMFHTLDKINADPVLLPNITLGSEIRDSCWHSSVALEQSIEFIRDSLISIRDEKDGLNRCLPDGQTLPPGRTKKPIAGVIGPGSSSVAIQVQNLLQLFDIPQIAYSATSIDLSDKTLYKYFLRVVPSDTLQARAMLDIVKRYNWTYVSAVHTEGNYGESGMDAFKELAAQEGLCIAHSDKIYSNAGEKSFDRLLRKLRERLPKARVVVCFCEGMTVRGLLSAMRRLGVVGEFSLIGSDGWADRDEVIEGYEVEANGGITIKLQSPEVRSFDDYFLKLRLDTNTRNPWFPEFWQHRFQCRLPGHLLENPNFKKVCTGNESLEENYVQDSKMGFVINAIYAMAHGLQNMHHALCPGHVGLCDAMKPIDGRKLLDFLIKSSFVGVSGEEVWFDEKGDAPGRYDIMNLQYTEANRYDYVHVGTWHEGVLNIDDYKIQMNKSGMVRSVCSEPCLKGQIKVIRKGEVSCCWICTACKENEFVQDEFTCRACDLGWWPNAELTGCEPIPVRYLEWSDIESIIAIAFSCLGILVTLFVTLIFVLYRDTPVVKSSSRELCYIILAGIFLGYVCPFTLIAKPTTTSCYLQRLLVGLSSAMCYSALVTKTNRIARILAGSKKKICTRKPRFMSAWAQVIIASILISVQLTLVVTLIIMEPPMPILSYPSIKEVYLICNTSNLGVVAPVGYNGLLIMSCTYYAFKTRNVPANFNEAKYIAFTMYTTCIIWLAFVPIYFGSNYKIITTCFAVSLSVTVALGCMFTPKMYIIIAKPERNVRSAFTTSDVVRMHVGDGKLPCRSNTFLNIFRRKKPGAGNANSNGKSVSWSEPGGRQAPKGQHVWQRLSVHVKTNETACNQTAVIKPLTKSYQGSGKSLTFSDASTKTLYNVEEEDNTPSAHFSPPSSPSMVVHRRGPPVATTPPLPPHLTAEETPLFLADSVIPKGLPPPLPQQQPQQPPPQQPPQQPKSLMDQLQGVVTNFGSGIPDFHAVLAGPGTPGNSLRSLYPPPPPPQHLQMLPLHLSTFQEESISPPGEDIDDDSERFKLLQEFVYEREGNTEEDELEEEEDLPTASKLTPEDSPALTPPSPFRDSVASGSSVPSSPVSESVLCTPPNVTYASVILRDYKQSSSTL

What is called EC50 is the concentration that produces a half-maximal response. As for `NC(C(=O)O)c1cc(O)ccc1Cl` (racemic) [CHPG, 2-Chloro-5-hydroxyphenylglycine], the figures for the EC50 in experiment [1] and in experiment [2] were 57 µM and 80 µM, respectively.
